In publication PMC11643690, “Chelating Properties of N6O-Donors Toward Cu(II) Ions: Speciation in Aqueous Environments and Catalytic Activity of the Dinuclear Complexes” (Molecules, 2024):

Key:
[1] = ESI-MS(+) competition with equimolar Cu, Fe, Mn, Zn perchlorates; assay type: binding; conditions: half an equivalent of ligand
Experimental: Equimolar solutions of Cu(ClO4)2, Fe(ClO4)2, Mn(ClO4)2, and Zn(ClO4)2 were prepared, and half an equivalent of HL-CH3 was added. The composition of the solution was then analyzed with ESI-MS to determine which species were formed. […] The most intense signal is the cluster at m/z = 855, referring to the species [Cu2(L-CH3)(ClO4)2]^+. Other signals are at m/z = 801 for [Cu2(L-CH3)(COO)(ClO4)]^+ and m/z = 351 for [Cu2(L-CH3)(ClO4)]^2+.

β-amyloid 1–40 peptide = target: T1, β-amyloid 1–40 peptide (Homo sapiens, UniProt P05067); experiment: Thioflavin T (ThT) fluorescence aggregation assay; assay type: biochemical; conditions: [ThT] = 10 μM; [β-amyloid 1–40] = 10 μM; 10 μM test substance; PBS pH 7.4, 37 °C
T1 construct: β-Amyloid (1–40) was purchased from GenScript; purchased GenScript (Leiden, the Netherlands)
T1 sequence (P05067 672-711 limits assumed): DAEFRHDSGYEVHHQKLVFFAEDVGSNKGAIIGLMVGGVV
Experimental: To evaluate the anti-aggregation ability of the complexes, the β-amyloid 1–40 peptide was selected due to its higher solubility and slower aggregation rate compared to the full-length Aβ 1–42. Aggregation experiments were conducted using the Thioflavin T (ThT) fluorescence assay, which is a standard method to monitor amyloid aggregation. ThT binds specifically to amyloid fibrils, causing an increase in fluorescence intensity. If a complex inhibits peptide aggregation, the observed fluorescence increase will be lower compared to the reference, indicating inhibition.
In this experiment, the amyloid peptide was first dissolved in 1,1,1,3,3,3-hexafluoro-2-propanol (HFIP) to facilitate its unfolding. A 0.2 mM solution of the peptide was then prepared in 10 mM PBS (containing 100 mM NaCl, pH 7.4). To this solution, equimolar amounts of ThT (prepared in the same buffer) and the complex (dissolved in methanol) were added.
Aggregation test: ThT method
Amyloid peptides Aβ1-40 were used for this analysis. […]
• For the measurement, fluorescence spectra were recorded with a plate reader, using a Tecan […]
The fluorescence of sample solutions was monitored at 37° C over a period of about 30 hours, acquiring values every 20 minutes. The fluorescence variation of ThT was compared in the presence/ absence of amyloid/ ligands/ complexes.

inhibition of Aβ 1–40 aggregation (ThT fluorescence) (β-amyloid 1–40 peptide): moderate inhibition
SMILES: Cc1cc(CN(Cc2ccccn2)Cc2ccccn2)c(O)c(CN(Cc2ccccn2)Cc2ccccn2)c1 [HL-CH3, 2,6-bis[(bis(2-pyridylmethyl)amino)methyl]-4-methylphenol]
species formed in ESI-MS(+) spectrum [1]: only ascribable to the copper complex
